According to ChEMBL document CHEMBL1146788, “Synthesis and biological evaluation of novel beta-carboline derivatives as Tat-TAR interaction inhibitors” (Bioorg Med Chem Lett, 2004):

The compounds below were run on MT4 (assay: Concentration required to protect MT-4 cells against the cytopathogenicity of HIV-1 IIIB). Conditions: Homo sapiens.
Type: functional, cell-based

Q: For `NCCCNC(=O)c1cc2c3ccccc3nc-2c[nH]1`, which EC50 is on record?
A: > 1000 µM

Q: With `Cc1[nH]c(C(=O)NCCCN)cc2c3ccccc3nc1-2` as the compound, how does the EC50 read?
A: > 100 µM

Q: With `Cc1[nH]c(C(=O)NCCCN=C(N)N)cc2c3ccccc3nc1-2` as the compound, how does the EC50 read?
A: ≥ 50 µM

Q: For `N=C(N)NCCCNC(=O)c1cc2c3ccccc3nc-2c[nH]1`, which EC50 is on record?
A: ≥ 50 µM

These compounds were tested on MT4 (assay: Concentration required to inhibit the proliferation of uninfected MT-4 cells). Conditions: Homo sapiens.
Type: functional

Q: `NCCCNC(=O)c1cc2c3ccccc3nc-2c[nH]1` was tested. Which CC50 did it give?
A: > 1000 µM

Q: For `Cc1[nH]c(C(=O)NCCCN)cc2c3ccccc3nc1-2`, which CC50 is on record?
A: > 100 µM

Q: For `Cc1[nH]c(C(=O)NCCCN=C(N)N)cc2c3ccccc3nc1-2`, which CC50 is on record?
A: > 100 µM

Q: `N=C(N)NCCCNC(=O)c1cc2c3ccccc3nc-2c[nH]1` was tested. Which CC50 did it give?
A: > 1000 µM
